Entries after “also recorded” stand apart in the source; their conditions may differ.
Experiments:
eeAChE = biological target: T1, eeAChE (Electrophorus electricus, UniProt O42275); assay: biochemical; assay type: biochemical; settings: for IC50: Table 1, mean ± SD; for Selectivity Index for AChE: IC50(BChE)/IC50(AChE)
T1 construct: purchased Sigma-Aldrich C3389
Method: (§1) The abilities of synthesized 22 compounds to inhibit AChE and BuChE activity were determined following Ellman’s procedure using a Perkin Elmer Lambda 35 spectrophotometer with thermostated 1.00 cm quartz cells. AChE’s and BuChE’s stock solutions were diluted with 20 mM TRIS to give 1 unit per mL of enzymes’ activity. […] A 0.01 M DTNB solution was prepared with 0.1 M phosphate buffer (pH 7) containing 0.15% (w/v) sodium bicarbonate. A 0.1 M phosphate buffer (pH 8) was used for assay. pH was adjusted to 8.0 ± 0.1 by adding aliquots of concentrated HCl. Stock solutions (10 mM) of investigated compounds were prepared daily by dissolving solid compounds in DMSO. Diluted solutions were also prepared in DMSO.
(§2) Briefly, enzymes’ assays were prepared as follows. […] Thereafter, 20 μL of ASChI or BSChCI was added, after which the reaction was initiated. […] For the blank value, the addition of 20 μL of buffer replaced the enzyme solution while an addition of 7 μL of DMSO replaced the inhibitor solution. The control solution contained 7 μL of DMSO instead of the inhibitor. The screening test was performed at a 1 × 10^−5 M concentration, and the compounds with more than 50% of inhibition were further assayed using dilution series of up to eight increasing concentrations (10^−5 M to 10^−9 M). The inhibition potency was presented as the dependence on the relative enzyme activity (REA) as the function of the compound’s concentration. IC50 values were determined graphically from Hill curves using Origin 9 Microsoft Windows.

eqBuChE = biological target: T2, eqBuChE (Equus caballus, UniProt P81908); assay: biochemical; settings: Table 1; preincubation 6 min, incubation 6 min, 37 °C; mean ± SD; read-out: IC50 BuChE
T2 construct: butyrylcholinesterase (BuChE) from horse serum (C1057); purchased Sigma-Aldrich C1057; host or cells: horse serum
Method: as §1, §2

in vitro = settings: for PAMPA-BBB Permeability Pe: porcine polar brain lipids, UPLC quantification; for Papp: pig, PAMPA
Method: The assay was performed according to the method reported by Di et al. with slight modification. Commercial drugs, verapamil, and caffeine were used to validate the protocol. […] Each sample was analyzed with at least three independent experiments in three wells.

[1] = logP determination by UPLC; assay type: physicochemical; settings: reversed-phase ACQUITY UPLC BEH C18 column; UPLC method
Method: . The column used for logP determinations was ACQUITY UPLC BEH C18 column with the dimensions 1.7 μm × 100 mm × 2.1 mm (Waters). The measurements were performed in the isocratic mode. The eluent flow rate was 0.25 mL min^−1, and the injection volume was 5 μL. The mobile phase composition was a different percentage of acetonitrile and H2O (we ran a chromatogram for each compound with different eluent compositions and the acetonitrile fraction ranging from 64% to 91%). The wavelength of the optical detection was 256 nm, the retention times for every examined compound under certain experimental conditions were determined. At the beginning, the compound’s retention factor, k’, was determined for different percentages of acetonitrile in the mobile phases. The column’s dead time was determined by the injection of sodium bromide. After that, the retention factors for a pure aqueous eluent (log kw) were determined for the compounds with previously known logPo/w values as well as for the investigated compounds. […]

AChE [2] = biological target: T3, AChE (Electrophorus electricus, UniProt O42275); assay: Kinetic study of AChE inhibition (Lineweaver-Burk); assay type: biochemical; settings: for Type of Inhibition (AChE): Lineweaver-Burk plot; for Ki: preincubation 6 min, incubation 2 min
T3 construct: purchased Sigma-Aldrich C3389
Method: (§3) Kinetic studies of ChE enzymes were also performed using the above-mentioned modified Ellman’s method. The preincubation time was 6 min, while the incubation time was 2 min. The type of enzyme inhibition was justified by the Lineweaver–Burk plot (double reciprocal plot) for selected inhibitor concentrations, and substrate concentrations ranged from 0.01 to 1 mM. The kinetic parameters Km, Vmax, and Ki were determined. Graphs were plotted using Origin9 for Microsoft Windows.

AChE [3] = biological target: T3, AChE; assay: Trp fluorescence-quenching titration of AChE; assay type: binding; settings: 5 IU/mL AChE
Method: (§4) Fluorescence titration studies were conducted using the Agilent Cary Eclipse fluorescence spectrophotometer. Fluorescence-quenching spectra were recorded within the wavelength range of 320–450 nm, with an excitation at 295 nm at room temperature. Excitation and emission slit widths were both set at 5 nm, and the scanning rate was fixed at 9600 nm/min. The concentration of enzymes was 5 IU/mL. The incubation time between each addition of THIQ aliquots was 6 min.

BuChE [4] = biological target: T4, BuChE (Equus caballus, UniProt P81908); assay: Trp fluorescence titration of BuChE; assay type: binding; settings: 5 IU/mL BuChE
T4 construct: butyrylcholinesterase (BuChE) from horse serum (C1057); purchased Sigma-Aldrich C1057; host or cells: horse serum
Method: as §4

BuChE [5] = biological target: T4, BuChE; assay: Kinetic study of BuChE inhibition (Lineweaver-Burk); assay type: biochemical
Method: as §3

[6] = preincubation 6 min, incubation 6 min, 37 °C
[7] = excitation 295 nm, room temperature

T3 sequence (O42275 24-633): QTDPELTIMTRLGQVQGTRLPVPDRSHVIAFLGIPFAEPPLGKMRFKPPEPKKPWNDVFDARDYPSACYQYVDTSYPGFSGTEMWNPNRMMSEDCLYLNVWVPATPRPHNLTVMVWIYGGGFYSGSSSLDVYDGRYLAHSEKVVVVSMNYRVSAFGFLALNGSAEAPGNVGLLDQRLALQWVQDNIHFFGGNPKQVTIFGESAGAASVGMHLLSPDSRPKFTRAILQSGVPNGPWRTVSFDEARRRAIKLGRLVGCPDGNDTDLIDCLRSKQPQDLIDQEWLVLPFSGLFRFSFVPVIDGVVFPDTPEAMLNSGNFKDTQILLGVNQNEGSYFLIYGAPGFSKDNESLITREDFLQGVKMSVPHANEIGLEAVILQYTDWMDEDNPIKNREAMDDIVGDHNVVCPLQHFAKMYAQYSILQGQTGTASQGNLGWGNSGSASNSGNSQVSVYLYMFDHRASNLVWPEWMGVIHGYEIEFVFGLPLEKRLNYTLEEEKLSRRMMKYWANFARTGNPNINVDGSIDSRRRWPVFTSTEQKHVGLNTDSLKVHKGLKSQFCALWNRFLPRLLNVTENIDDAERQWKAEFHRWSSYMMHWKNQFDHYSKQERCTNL
T1 sequence (O42275 24-633): as above
T4 sequence (P81908 whole entry): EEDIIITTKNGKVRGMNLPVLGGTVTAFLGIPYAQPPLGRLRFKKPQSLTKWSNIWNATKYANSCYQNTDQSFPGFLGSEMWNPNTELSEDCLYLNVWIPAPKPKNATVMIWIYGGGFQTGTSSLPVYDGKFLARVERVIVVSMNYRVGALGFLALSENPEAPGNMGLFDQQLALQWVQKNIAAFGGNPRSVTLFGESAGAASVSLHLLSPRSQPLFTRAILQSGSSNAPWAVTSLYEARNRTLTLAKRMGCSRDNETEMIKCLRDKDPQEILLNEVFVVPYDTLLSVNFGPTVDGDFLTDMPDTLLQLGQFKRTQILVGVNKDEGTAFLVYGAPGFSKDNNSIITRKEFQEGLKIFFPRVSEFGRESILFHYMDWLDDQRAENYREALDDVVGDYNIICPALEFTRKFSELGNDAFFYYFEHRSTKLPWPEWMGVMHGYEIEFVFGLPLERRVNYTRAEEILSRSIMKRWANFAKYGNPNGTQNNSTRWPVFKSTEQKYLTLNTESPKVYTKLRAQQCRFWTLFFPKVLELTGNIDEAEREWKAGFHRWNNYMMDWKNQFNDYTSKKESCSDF
T2 sequence (P81908 whole entry): as above

Row | SMILES | IC50 (eeAChE; [6]) | IC50 (eqBuChE) | Selectivity Index for AChE (eeAChE) | further results
1 | COc1cc2c(cc1OC)C(CCC(=O)CCc1ccccc1)N(c1ccc(F)cc1)CC2 (stereo not shown) [Compound 3l] | > 10 µM | > 10 µM |  | 
2 | COc1cc2c(cc1OC)C(CC(C)=O)N(c1ccccc1)CC2 (stereo not shown) [Compound 2c] | 5.04 ± 0.28 µM | > 10 µM |  | 
3 | COc1cc2c(cc1OC)C(C#N)N(c1ccc(F)cc1)CC2 (stereo not shown) [Compound 4b] | > 10 µM | > 10 µM |  | 
4 | CC(=O)CC1c2ccccc2CCN1c1ccc(F)cc1 (stereo not shown) [Compound 2b] | 5.46 ± 0.58 µM | 8.9 ± 2.03 µM | 1.63 | 
5 | O=C(CCC1c2ccccc2CCN1c1ccccc1)c1ccccc1 (stereo not shown) [Compound 3f] | 2.42 ± 0.09 µM | 6.28 ± 0.36 µM | 2.59 | PAMPA-BBB Permeability Pe (in vitro): impossible to be detected; also recorded: High hydrophobicity; it retained in the membrane; chromatographic logP [1]: 3.66
6 | c1ccc(N2CCc3ccccc3C2)cc1 [Compound 1a, N-phenyl-1,2,3,4-tetrahydroisoquinoline] | > 10 µM | > 10 µM |  | Residual Activity at 1 × 10^−5 M AChE (eeAChE; 1 × 10^−5 M, preincubation 6 min, incubation 6 min, 37 °C): did not show inhibition potential
7 | O=C(CCc1ccccc1)CCC1c2ccccc2CCN1c1ccc(F)cc1 (stereo not shown) [Compound 3j] | 2.91 ± 0.09 µM | 4.52 ± 0.15 µM | 1.55 | 
8 | COc1cc2c(cc1OC)C(C#N)N(c1ccc(C)cc1)CC2 (stereo not shown) [Compound 4c] | > 10 µM | > 10 µM |  | 
9 | COc1cc2c(cc1OC)C(CC(=O)c1ccccc1)N(c1ccc(C)cc1)CC2 (stereo not shown) [Compound 3e] | > 10 µM |  |  | 
10 | N#CC1c2ccccc2CCN1c1ccccc1 (stereo not shown) [Compound 4a] | > 10 µM | > 10 µM |  | 
11 | Cn1c(=O)c2c(ncn2C)n(C)c1=O [Caffeine, reference compound] |  |  |  | Papp (in vitro): 1.47 ×10⁻⁶ cm/s
12 | COc1ccc(N2CCc3ccccc3C2CC(=O)c2ccccc2)cc1 (stereo not shown) [Compound 3b] | 9.05 ± 0.81 µM | > 10 µM |  | 
13 | COc1cc2c(cc1OC)C(CC(C)=O)N(c1ccc(F)cc1)CC2 (stereo not shown) [Compound 2d] | > 10 µM | > 10 µM |  | 
14 | CCC(=O)CC1c2cc(OC)c(OC)cc2CCN1c1ccccc1 (stereo not shown) [Compound 2e] | > 10 µM |  |  | 
15 | COc1cc2c(cc1OC)C(CCC(=O)c1ccccc1)N(c1ccccc1)CC2 (stereo not shown) [Compound 3g] | 6.78 ± 0.22 µM | 8.01 ± 0.55 µM | 1.18 | 
16 | COc1cc2c(cc1OC)C(CC(=O)c1ccccc1)N(c1ccccc1)CC2 (stereo not shown) [Compound 3c] | 1.95 ± 0.23 µM | > 10 µM | >5 | Type of Inhibition (AChE) (AChE [2]): Non-competitive; Ki (AChE [2]): 1.78 ± 0.1 µM; fold increase in inhibitory activity towards AChE (eeAChE; compared to compound 2c): 2.5 fold; Quenching of Trp fluorescence of AChE (AChE [3]): no quenching of Trp fluorescence; Papp (in vitro): 47.5 ×10⁻⁶ cm/s; PAMPA-BBB Permeability Pe (in vitro): successfully crossed the artificial blood−brain barrier; also recorded: able to cross the BBB; chromatographic logP [1]: 3.39
17 | COc1cc2c(cc1OC)C(CC(=O)c1ccccc1)N(c1ccc(F)cc1)CC2 (stereo not shown) [Compound 3d] | 4.89 ± 0.15 µM | > 10 µM |  | fold lower inhibitory activity towards AChE (eeAChE; compared to unsubstituted 3c): 2.5 fold
18 | COc1cc2c(cc1OC)C(CCC(=O)CCc1ccccc1)N(c1ccccc1)CC2 (stereo not shown) [Compound 3k] | 4.02 ± 0.19 µM | > 10 µM |  | 
19 | O=C(CC1c2ccccc2CCN1c1ccccc1)c1ccccc1 (stereo not shown) [Compound 3a] | 4.29 ± 0.09 µM | 8.26 ± 1.05 µM | 1.93 | 
20 | COc1cc2c(cc1OC)C(CCC(=O)c1ccccc1)N(c1ccc(F)cc1)CC2 (stereo not shown) [Compound 3h] | > 10 µM | > 10 µM |  | 
21 | O=C(CCc1ccccc1)CCC1c2ccccc2CCN1c1ccccc1 (stereo not shown) [Compound 3i] | 1.11 ± 0.04 µM | 2.72 ± 0.2 µM | 2.45 | Effect on Trp fluorescence of BuChE (BuChE [4]): fluorescence intensity of BuChE was increased; Type of Inhibition (AChE) (AChE [2]): Non-competitive; Ki (AChE [2]): 1.06 ± 0.01 µM; Quenching of Trp fluorescence of AChE (AChE [3]): quenching of Trp fluorescence was observed; n (number of binding sites) (AChE [3]): 0.94 ± 0.04; Ksv (AChE [3]; [7]): (6.96 ± 0.05) × 10^4 M^−1; kq (bimolecular quenching constant) (AChE [3]; [7]): (6.96 ± 0.05) × 10^14 M^−1s^−1; Type of Inhibition (BuChE) (BuChE [5]; Lineweaver-Burk plot): mixed type of inhibition (non-competitive/uncompetitive); also recorded: Mix non-competitive/uncompetitive; Ki (BuChE [5]; preincubation 6 min, incubation 2 min): 1.04 ± 0.1 µM; PAMPA-BBB Permeability Pe (in vitro): impossible to be detected; also recorded: High hydrophobicity; it retained in the membrane; chromatographic logP [1]: 3.78
22 | CC(=O)CC1c2ccccc2CCN1c1ccccc1 (stereo not shown) [Compound 2a] | > 10 µM | > 10 µM |  | 
